The source of these data is US20250382631A1, “PROTAC-CID SYSTEMS FOR USE IN MULTIPLEX GENE REGULATION” (William Marsh Rice University, priority 2022, published 2025).

One test concerns the target GAL4-FKBP12^F36V (human). Kind of test: cell-based or functional assay.
The next test has as its target TRIM24^BD-VPR (human). Kind of test: cell-based or functional assay.
A further test has as its target BRD4^BD2-VPR (human). Kind of test: cell-based or functional assay.
A further test concerns the target PYL-VPR (UniProt Q8VZS8). Kind of test: cell-based or functional assay.
In a further test the target is GAL4-FKBP12 (UniProt P04386). Description: cell-based or functional assay.
For test [1], the system named is Cre-mediated GFP expression in HEK293T cells. Description: Inducible Cre site-specific DNA recombination, LoxP-STOP-LoxP-GFP reporter. To be noted: 100 nM dTAG-13 or 1 μM dBRD9, 2 days, FIGS. 3A and 17. The test is classed as cell-based, human. On the procedure: (§1) Fluorescence assay using flow cytometry analysis. Cells were treated with 0.05% Trpsin EDTA (Thermo Fisher Scientific no. 25300054) or TrypLE (Thermo Fisher Scientific no. 12605028) after transfection and centrifuged at 3000 g for 5 min. Supernatant was removed and the cell pellet was resuspended with 200 μL phosphate buffered saline (PBS) without calcium and magnesium (Thermo Fisher Scientific no. 10010023). Cells were transferred into 12×75 mm flow tubes (Global Scientific no. 110410). Cells were analyzed by MA900 flow cytometry (SONY). 405 nm laser (FL6 filter) was used for testing the BFP channel. 488 nm (FL1 filter) was used for testing the EYFP and GFP channel. Automated alignment using Automatic Setup Beads kit (SONY no. LE-B3001) is performed before running samples. In FIGS. 3A, 3B, and 17, experiments were performed under 2% FSC, 17% BSC, 24% FL1. In FIG. 18, experiments were performed under 2% FSC, 17% BSC, 27% FL1. All the other experiments were performed under 2% FSC, 17% BSC, 24% FL1 and 27% FL6. Flow cytometry data was processed and analyzed by FlowJo 10. Events were first gated with forward scatter-Area (FSC-A) and side scatter-Area (SSC-A) to select viable cells and remove the debris and dead cells. Cells were further gated with FSC-A and FSC-Height (FSC-H) for selecting single cells. The mean intensity of the reporter fluorescent protein (BFP and EYFP) in viable and single cell populations were calculated by FlowJo 10 as the mean of FL6-A and FL1-A. When calculating the fold change of relative fluorescence units (RFU), the relative fluorescence units of EYFP was calculated by dividing the mean of fluorescence intensity of EYFP with the mean of BFP fluorescence intensity for normalization as the following formula: […]
Transfection and microscopy. […]

In test [2] the test system is EYFP and BFP expression in HEK293T cells. Kind of test: Dual PROTAC-based inducible gene cassettes (EYFP and BFP), microscopy. Type of test: cell-based, human. The note with it: GAL4-FKBP12^F36V + VHL-VPR driving EYFP; TetR-BRD9BD + CRBN-VPR driving BFP; 1 μM, FIG. 2B. On the procedure:
(§2) Transfection and microscopy. HEK293T cells (American Type Culture Collection, no. CRL-3216) were cultured with high-glucose Dulbecco's modified Eagle's medium (DMEM) (Thermo Fisher Scientific no. 10569044) with 10% fetal bovine serum (FBS) (Thermo Fisher Scientific no. 10437028) and 1×penicillin-streptomycin (Thermo Fisher Scientific no. 15140122) at 37° C. with 5% CO2. Except for the data in FIGS. 3C, 3E, and 3H, cells were plated into 96 well plate (Corning no. 3598) and transfected by Polyethyleneimine Max (PEI Max) (Polysciences no. 24765-1). 1.5 μL PEI Max (1 mg/mL, pH=7.1) and 100 μl DMEM were mixed with plasmids to be slowly dropped into the cell medium after 30 mins of incubation. Medium was changed 12 hours post-transfection. The inductive small molecules, including Rapamycin (STEM CELL technologies no. 73362), dTAG-13 (TOCRIS no. 6605/5), dTAG^V-1 (TOCRIS no. 6744-5), dBRD9 (TOCRIS no. 6606/5), dTRIM24 (TOCRIS no. 6607/5), MZ1 (TOCRIS no. 6154/5), AT1 (TOCRIS no. 6356/5), TL13-12 (TOCRIS no. 6744/5), TL13-112 (TOCRIS no. 6745/5), dTAG-7 (TOCRIS no. 69125), ZXH3-26 (TOCRIS no. 6713/5) and ABA (GoldBio no. A-050-100), dissolved in Dimethyl sulfoxide (DMSO) (Sigma, no. D8418) were added. For the microscopy observation, the images were taken by Microscopy EVOS (Life Technologies) and processed by ImageJ (Schneider et al., 2012). If not otherwise noted, 60 ng of each plasmid were used for each sample.
The inventors next tested the feasibility of dual PROTAC-based inducible gene cassettes (FIG. 15). In the first cassette, GAL4 was fused with FKBP12^F36V, and VHL was ligated with VPR to drive EYFP expression in response to dTAG^V-1. In the second cassette, TetR was fused with BRD9BD, and CRBN was connected with VPR to drive blue fluorescence protein (BFP) expression in the presence of dBRD9. […] As biological computation relies on the protein or DNA to execute Boolean logic gate operation in living organisms for cell discrimination and disease diagnosis (3, 11, 42), the inventors next explored the possibility of PROTAC-CID enabled logic gate biological computation. By placing EYFP under control of the TRE (Tetracycline response element) and pUAS-1 promoter, the inventors observed strong EYFP expression by using one or two PROTACs, achieving clear logic OR gate responses (FIGS. 2C and 16B). To develop a more sophisticated logic AND gate, the inventors took advantage of two orthogonal site-specific DNA recombinases (Cre and Dre) for biological computation (43). […] In this gene circuit, only in the presence of both dTAG-13 and dBRD9 inducers, Dre and Cre can be expressed to remove their respective “STOP” signals, resulting in the eventual GFP expression as a clear logic AND readout (FIGS. 2D and 16C).

For test [3], the system named is pUAS-1-driven EYFP expression in HEK293T cells transfected with GAL4- and VPR-fused PROTAC target protein / E3 ubiquitin ligase. Description: PROTAC-CID inducible EYFP gene activation, flow cytometry. Type of test: cell-based, human. To be noted: FIG. 13A. The method, then:
as §1
Next, the mean of the normalized relative fluorescence units of induced group were divided by the value of control group for calculating the fold change as the following formula: […]
as §2
Step-by-step fluorescence protein activation assay protocol. Reagents: • 1. PEI Max (Polysciences no. 24765-1) • 2. DMEM, high glucose, GlutaMAX™ Supplement, pyruvate (Thermo Fisher Scientific no. 10569044) • 3. Penicillin-Streptomycin (10,000 U/mL) (Thermo Fisher Scientific no. 15140122) • 4. Fetal Bovine Serum 500ML (FBS) (Thermo Fisher Scientific no. 10437028) • 5. TrypLE™ Express Enzyme (1×), phenol red (Thermo Fisher Scientific no. 12605068) • 6. PBS pH=7.4 (Thermo Fisher Scientific no. 10010023) • 7. Sony sorting chip […] for MA900 (SONY no. LE-C3210) • 8. Automatic Setup Beads kit (SONY no. LE-B3001) • 9. […]

For a further test, the target named is wild-type FKBP12 (Homo sapiens, UniProt P62942). To be noted: refs (32, 36); cited from earlier work.
wild-type FKBP12, sequence (P62942 whole entry, species assumed): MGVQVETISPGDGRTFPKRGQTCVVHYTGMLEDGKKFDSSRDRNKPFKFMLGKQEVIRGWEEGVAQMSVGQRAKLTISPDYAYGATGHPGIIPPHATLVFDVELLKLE
[4] abbreviates: Table 4 nonlinear regression of EYFP activation.

Read-outs that look alike come from different tables or passages of the source.

PYL-VPR, sequence (Q8VZS8 33-209): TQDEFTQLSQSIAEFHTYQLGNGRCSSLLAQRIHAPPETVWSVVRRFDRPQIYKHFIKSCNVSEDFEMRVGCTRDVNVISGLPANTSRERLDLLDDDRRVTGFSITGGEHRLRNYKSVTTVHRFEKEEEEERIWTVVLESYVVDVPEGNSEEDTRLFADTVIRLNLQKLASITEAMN

Take CRBN-VPR: in the test with GAL4-FKBP12^F36V (human), the EC50 of the inducer dTAG-13 for EYFP gene activation (dose-response, FIG. 13A) was found to be 53 nM and the fold increase in EYFP expression with dTAG-13 is over 100 fold.
As for GAL4-VHL fusion protein, the EC50 of the inducer dTRIM24 for EYFP gene activation (dose-response, FIG. 13A) with TRIM24^BD-VPR (human) worked out at 6350 nM. The molecule further gave an EC50 of the inducer MZ1 for EYFP gene activation (dose-response, FIG. 13A) in the test with BRD4^BD2-VPR (human) of 32.4 nM.
The molecule VHL-VPR (from UniProt P40337 1-213) displayed an EC50 of the inducer dTAG^V-1 for EYFP gene activation (dose-response, FIG. 13A) with GAL4-FKBP12^F36V (human) of 228 nM.
Molecule “GAL4-ABI (from UniProt P04386 1-147; P49597 126-423)” registered an EC50 of the inducer ABA for EYFP gene activation (dose-response, FIG. 13A) with PYL-VPR of 763 nM.
Turning to FRB-VPR (from UniProt P42345 2021-2113), in the test with GAL4-FKBP12, the EC50 of the inducer Rapamycin for EYFP gene activation (dose-response, FIG. 13A) amounted to 6.32 nM and the fold EYFP gene activation with rapamycin was determined as 355 fold.
Take `COc1cc(-c2cn(C)c(=O)c3cnccc23)cc(OC)c1CN(C)CC(=O)NCCOCCOCCNc1cccc2c1C(=O)N(C1CCC(=O)NC1=O)C2=O` (stereo not shown) [dBRD9]: in test [1], the “GFP signal, two-layer genetic circuit driving Cre” value was “strong GFP signal”. Besides, the “EYFP / BFP expression from dual inducible cassettes” value in [2] was “expression only in the presence of its corresponding inducer”.
With `CC[C@H](C(=O)N1CCCC[C@H]1C(=O)O[C@H](CCc1ccc(OC)c(OC)c1)c1ccccc1OCC(=O)NCCCCCCC(=O)N[C@H](C(=O)N1C[C@H](O)C[C@H]1C(=O)N[C@@H](C)c1ccc(-c2scnc2C)cc1)C(C)(C)C)c1cc(OC)c(OC)c(OC)c1` [dTAG^V-1], in test [3] (setting [4]), the “Bottom (best-fit value)” value amounted to 0.9420, the “Span (best-fit value)” value worked out at 55.73 and the “Top (best-fit value)” value was 56.67. Besides, in test [3] (Table 4 nonlinear regression), the “Hillslope (best-fit value)” value is on record as 1.937 and the “logEC50 (best-fit value)” value is 2.358. Moreover, in test [3] (Table 4 nonlinear regression, Prism 9 [Agonist] vs. response variable slope (four parameters), no unit in table (the source gives nM), read-out: EC50 (best-fit value)), the EC50 was 228 nM. In addition, the EC50 in test [3] (dose-response, read-out: EC50 for gene activation) was 228 nM. The “degradation of wild-type FKBP12” value on wild-type FKBP12 was “do not degrade wild-type FKBP12”. Besides, the “EYFP / BFP expression from dual inducible cassettes” value in test [2] is reported as “expression only in the presence of its corresponding inducer”.
